# Assay results reported in patent US7449477B2, “7-phenyl-isoquinoline-5-sulfonylamino derivatives as inhibitors of akt (protein kinase B)” (Eli Lilly and Company, priority 2003, dated 2008).
# pIC50: −log10 of the molar value. Where a name gives a salt, the structure may show the parent alone.
# Biological target: T1, active human Akt1 (Homo sapiens, UniProt P31749)
# T1 construct: Active human recombinant Akt1 (full-length) purified from Sf9 insect cells; purchased Upstate Biotechnology, Inc. 14-276; host or cells: Sf9 insect cells
# Experiment: Akt1 Phosphorylation Assay (phosphocellulose filter-binding, 33P-Crosstide)
# Assay type: biochemical
# Conditions: active human recombinant Akt1 (full-length) 10 nM; 12.5 μM Crosstide; 20 μM ATP; 30 minutes at room temperature
# Protocol: Akt1 Phosphorylation Assay
# The assay described measures the phosphorylation of Crosstide by active human Akt1 and other Akt isoforms. Crosstide contains a consensus sequence derived from Akt substrates GSK3b and forkhead transcription factors (FKs). The ^33P-labeled Crosstide substrate is captured by phosphocellulose membrane filter plates.
# Active human recombinant Akt1 (full-length) purified from Sf9 insect cells is from Upstate Biotechnology, Inc. (Cat. #14-276, 405 μg/ml). Crosstide substrate, NH2-GRPRTSSFAEG-COOH (M.W.1164) is purchased from Multiple Peptide System (Cat. # L59/GR145-153).
# Solution (A): 20% DMSO (dimethylsulphoxide) or Compound in 20% DMSO; Solution (B): Assay Buffer Mix: 31.25 μM Crosstide, 37.5 mM MgCl2, 87.5 mM HEPES, pH 7.3, 50 μM ATP γ-^33P-ATP, 0.05 μCi/μl; Solution (C): Akt Kinase Mix: 31.25 mM HEPES, pH 7.3; 1 mM DTT, 25 nM UBI Akt1.
# Procedure for Phosphocellulose Filter-Binding Assay
# Ten μl of Solution (A) are first mixed with 20 μl Solution (B). The enzymatic reaction is initiated by adding 20 μl Solution (C) to the mixture. (Final concentration or amount in a 50-μl reaction mix: 4% DMSO or various compound concentration in 4% DMSO; 12.5 μM Crosstide; 15 mM MgCl2; 35 mM HEPES, pH7.3; 20 μM ATP; 1 μCi γ-^33P-ATP; 0.4 mM DTT; 10 nM UBI Akt1.) The reactions are performed in 96-well microtiter plates.
# After 30 minutes at room temperature, the reaction is terminated by adding 80 μl of 10% H3PO4. An aliquot of 100 μl from each well is transferred to the phosphocellulose filter plate (Millipore MultiScreen, Catalog #MAPHN0B50). After 30 minutes, the reaction mix is filtered with a Millipore manifold following by 3 washes with 0.5% H3PO4. The filter is then vacuum-dried and the plate is fitted onto a Packard carrier. 100 μl/well Microscint20 are added and the contents are counted in a Packard Top Count.
# T1 sequence (P31749 whole entry): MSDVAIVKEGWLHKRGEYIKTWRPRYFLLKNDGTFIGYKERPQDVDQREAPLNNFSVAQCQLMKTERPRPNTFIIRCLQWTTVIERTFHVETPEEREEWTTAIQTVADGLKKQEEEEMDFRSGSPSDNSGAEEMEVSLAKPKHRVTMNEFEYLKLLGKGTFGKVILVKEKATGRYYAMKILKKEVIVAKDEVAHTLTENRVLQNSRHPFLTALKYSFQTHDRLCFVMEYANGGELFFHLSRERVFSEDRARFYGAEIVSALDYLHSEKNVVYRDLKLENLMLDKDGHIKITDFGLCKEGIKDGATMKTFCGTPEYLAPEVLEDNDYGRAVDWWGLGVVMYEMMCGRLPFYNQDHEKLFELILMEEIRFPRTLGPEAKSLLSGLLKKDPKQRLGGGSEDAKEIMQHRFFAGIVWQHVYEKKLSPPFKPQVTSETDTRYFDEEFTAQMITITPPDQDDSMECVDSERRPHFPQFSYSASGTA
row,pIC50,SMILES
1,≥ 5.70,"O=S(=O)(NCCNCCCc1ccccc1N1C=CC=NC=C1)c1cc(-c2ccccc2)cc2cnccc12 [Example 7, 7-Phenyl-isoquinoline-5-sulfonic acid {2-[3-(2-[1,4]diazepin-1-yl-phenyl)-propylamino]-ethyl}-amide, tetrahydrochloride salt]"
2,≥ 5.70,"O=S(=O)(NCCNCCCc1ccc(Cl)cc1Cl)c1cc(-c2ccccc2)cc2cnccc12 [Example 65, 7-Phenyl-isoquinoline-5-sulfonic acid {2-[3-(2,4-dichlorophenyl)-propylamino]-ethyl}-amide, dihydrochloride salt]"
3,≥ 5.70,"O=[N+]([O-])c1ccc(CCCNCCNS(=O)(=O)c2cc(-c3ccccc3O)cc3cnccc23)cc1 [Example 91, 7-(2-hydroxy-phenyl)-isoquinoline-5-sulfonic acid {2-[3-(4-nitro-phenyl)-propylamino]-ethyl}-amide, dihydrochloride salt]"
4,≥ 5.70,"O=S(=O)(NCCNCCCc1ccc(Cl)cc1N1CCNCC1)c1cc(-c2ccccc2)cc2cnccc12 [Example 44, 7-Phenyl-isoquinoline-5-sulfonic acid {2-[3-(4-chloro-2-piperazin-1-yl-phenyl)-propylamino]-ethyl}-amide, tetrahydrochloride salt]"
5,≥ 5.70,"COc1cc([N+](=O)[O-])ccc1CCCNCCNS(=O)(=O)c1cc(-c2ccccc2)cc2cnccc12 [Example 63, 7-Phenyl-isoquinoline-5-sulfonic acid {2-[3-(2-methoxy-4-nitrophenyl)-propylamino]-ethyl}-amide, dihydrochloride salt]"
6,≥ 5.70,"O=S(=O)(NCCNCCCc1ccc(F)cc1F)c1cc(-c2ccccc2)cc2cnccc12 [Example 70, 7-Phenyl-isoquinoline-5-sulfonic acid {2-[3-(2,4-difluorophenyl)-propylamino]-ethyl}-amide, dihydrochloride salt]"
7,≥ 5.70,"O=[N+]([O-])c1ccc(CCCNCCNS(=O)(=O)c2cc(-c3ccccc3)cc3cnccc23)c(Cl)c1 [Example 38, 7-Phenyl-isoquinoline-5-sulfonic acid {2-[3-(2-chloro-4-nitrophenyl)-propylamino]-ethyl}-amide, dihydrochloride salt]"
8,≥ 5.70,"N#Cc1ccc(CC(O)CNCCNS(=O)(=O)c2cc(-c3ccccc3)cc3cnccc23)cc1 (centres unmarked) [Example 111, 7-Phenyl-isoquinoline-5-sulfonic acid {2-[3-(4-cyano-phenyl)-2-hydroxy-propylamino]-ethyl}-amide, dihydrochloride salt, dihydrochloride salt, dihydrochloride salt, dihydrochloride …]"
9,≥ 5.70,"N#Cc1ccc(C(O)CCNCCNS(=O)(=O)c2cc(-c3ccccc3)cc3cnccc23)cc1 (centres unmarked) [Example 75, 7-Phenyl-isoquinoline-5-sulfonic acid [2-(3-hydroxy-3-(4-cyanophenyl)-propylamino)-ethyl]-amide, dihydrochloride salt]"
10,≥ 5.70,"O=S(=O)(NCCNCCCc1ccc(Br)cc1)c1cc(-c2ccccc2)cc2cnccc12 [Example 4, 7-Phenyl-isoquinoline-5-sulfonic acid {2-[3-(4-bromophenyl)-propylamino]-ethyl}-amide, dihydrochloride salt]"
11,≥ 5.70,"O=[N+]([O-])c1cccc(CCCNCCNS(=O)(=O)c2cc(-c3ccccc3)cc3cnccc23)c1 [Example 101, 7-Phenyl-isoquinoline-5-sulfonic acid {2-[3-(3-nitro-phenyl)-propylamino]-ethyl}-amide, dihydrochloride salt]"
12,≥ 5.70,"N#Cc1cccc(CCCNCCNS(=O)(=O)c2cc(-c3ccccc3)cc3cnccc23)c1 [Example 32, 7-Phenyl-isoquinoline-5-sulfonic acid {2-[3-(3-cyanophenyl)-propylamino]-ethyl}-amide, dihydrochloride salt]"
13,≥ 5.70,"O=S(=O)(NCCNCCCc1ccc(S(=O)(=O)C(F)(F)F)cc1)c1cc(-c2ccccc2)cc2cnccc12 [Example 102, 7-Phenyl-isoquinoline-5-sulfonic acid {2-[3-(4-trifluoromethanesulfonyl-phenyl)-propylamino]-ethyl}-amide, dihydrochloride salt]"
14,≥ 5.70,"O=S(=O)(NCCNCCCc1ccc(F)cc1-c1ccccc1)c1cc(-c2ccccc2)cc2cnccc12 [Example 36, 7-Phenyl-isoquinoline-5-sulfonic acid {2-[3-(5-fluoro-biphenyl-2-yl)-propylamino]-ethyl}-amide, dihydrochloride salt]"
15,≥ 5.70,"Nc1cccc(-c2cc(S(=O)(=O)NCCNCCCc3ccc([N+](=O)[O-])cc3)c3ccncc3c2)c1 [Example 92, 7-(3-aminophenyl)-isoquinoline-5-sulfonic acid [2-(3-(4-nitrophenyl)-propylamino)-ethyl]-amide, trihydrochloride salt]"
16,≥ 5.70,"CSc1ccc(CCCNCCNS(=O)(=O)c2cc(-c3ccccc3)cc3cnccc23)cc1 [Example 35, 7-Phenyl-isoquinoline-5-sulfonic acid {2-[3-(4-methylthiophenyl)-propylamino]-ethyl}-amide, dihydrochloride salt]"
17,≥ 5.70,"O=S(=O)(NCCNCCCc1ccc(Cl)cc1OCCN1CCOCC1)c1cc(-c2ccccc2)cc2cnccc12 [Example 69, 7-Phenyl-isoquinoline-5-sulfonic acid (2-{3-[4-chloro-2-(2-morpholino-4-yl-ethoxy)-phenyl]-propylamino}-ethyl)-amide, dihydrochloride salt]"
18,≥ 5.70,"Cc1cc(C#N)ccc1CCCNCCNS(=O)(=O)c1cc(-c2ccccc2)cc2cnccc12 [Example 104, 7-Phenyl-isoquinoline-5-sulfonic acid {2-[3-(4-cyano-2-methyl-phenyl)-propylamino]-ethyl}-amide, dihydrochloride salt]"
19,≥ 5.70,"Cc1ccc([N+](=O)[O-])cc1CCCNCCNS(=O)(=O)c1cc(-c2ccccc2)cc2cnccc12 [Example 39, 7-Phenyl-isoquinoline-5-sulfonic acid {2-[3-(2-methyl-5-nitrophenyl)-propylamino]-ethyl}-amide, dihydrochloride salt]"
20,≥ 5.70,"O=S(=O)(NCCNCCCc1ccc(OC(F)F)cc1)c1cc(-c2ccccc2)cc2cnccc12 [Example 30, 7-Phenyl-isoquinoline-5-sulfonic acid {2-[3-(4-difluoromethoxy-phenyl)-propylamino]-ethyl}-amide, dihydrochloride salt]"
21,≥ 5.70,"CS(=O)(=O)c1ccc(CCCNCCNS(=O)(=O)c2cc(-c3ccccc3)cc3cnccc23)cc1 [Example 100, 7-Phenyl-isoquinoline-5-sulfonic acid {2-[3-(4-methanesulfonyl-phenyl)-propylamino]-ethyl}-amide, dihydrochloride salt]"
22,≥ 5.70,"CC(=O)Nc1ccc(CCCNCCNS(=O)(=O)c2cc(-c3ccccc3)cc3cnccc23)cc1 [Example 28, 7-Phenyl-isoquinoline-5-sulfonic acid {2-[3-(4-acetamidophenyl)-propylamino]-ethyl}-amide, dihydrochloride salt]"
23,≥ 5.70,"O=[N+]([O-])c1cccc(-c2cc(Cl)ccc2CCCNCCNS(=O)(=O)c2cc(-c3ccccc3)cc3cnccc23)c1 [Example 47, 7-Phenyl-isoquinoline-5-sulfonic acid {2-[3-(5-chloro-3′-nitro-biphenyl-2-yl)-propylamino]-ethyl}-amide, dihydrochloride salt]"
24,≥ 5.70,"O=S(=O)(NCCNCCC(O)c1ccc(S(=O)(=O)C(F)(F)F)cc1)c1cc(-c2ccccc2)cc2cnccc12 (centres unmarked) [Example 80, 7-Phenyl-isoquinoline-5-sulfonic acid [2-(3-hydroxy-3-(4-trifuoromethanesulfonyl-phenyl)-propylamino)-ethyl]-amide, dihydrochloride salt]"
25,≥ 5.70,"O=[N+]([O-])c1ccc(CCCNCCNS(=O)(=O)c2cc(-c3ccccc3)cc3cnccc23)cc1O [Example 105, 7-Phenyl-isoquinoline-5-sulfonic acid {2-[3-(3-hydroxy-4-nitro-phenyl)-propylamino]-ethyl}-amide, dihydrochloride salt]"
26,≥ 5.70,"CS(=O)(=O)c1ccc(C(O)CCNCCNS(=O)(=O)c2cc(-c3ccccc3)cc3cnccc23)cc1 (centres unmarked) [Example 79, 7-Phenyl-isoquinoline-5-sulfonic acid [2-(3-hydroxy-3-(4-methanesulfonyl-phenyl)-propylamino)-ethyl]-amide, dihydrochloride salt]"
